In patent US5733719A, “Method of making an assay compound” (priority 1995, dated 1998):
Blank lines part the entries; values can stand above or below the molecule they belong to.

Experiments:
enzyme = test: Effect of dithioerythritol (DTE) on substrate sensitivity; conditions: dithioerythritol (DTE) at 1 mM
Description: Modulators are components used to […] the sensitivity of the enzyme for the leaving group. The modulators speed up or slow down the activity of an enzyme by changing the active site. […] Preferred modulators for particular enzymes are included in Table 1.

Lymphs = test: Peptidases to distinguish leukemia from non-leukemia, lymphocytes; assay type: cell-based, human; design: unit not given here
Description: (§1) Artificial intelligence was used to analyze data of cellular enzyme functions, and determine normal and disease states. Peptidases were used to distinguish leukemia from non-leukemia (output pattern). For input patterns lymphocyte and granulocyte cell types were used with aminopeptidases, cathepsins and dipeptidylpeptidase enzyme activities. In this Example, illustrated in Tables 6A-6C, three normals and three leukemia patients were used as known output patterns for the neural network to learn (in practice, the larger the learning set the more accurate unknown prediction will be). Unknowns were then presented to the learned algorithm as shown in the test case examples. Clinical diagnosis was confirmed by physicians. The trained neural network was able to correctly classify the leukemia from the non-leukemia.

Grans = test: Peptidases to distinguish leukemia from non-leukemia, granulocytes; assay type: cell-based, human; design: unit not given here
Description: as §1

Structure (SMILES): NCCCC[C@H](N)C(=O)Nc1ccc2c(c1)Oc1cc(NC(=O)[C@@H](N)CCCCN)ccc1C21OC(=O)c2ccccc21 [LYS, (H--L--Lys)2 Rho 110-4TFA]
enzyme activity (Lymphs; J4 11/21/91 acute leuk.): 0.77
enzyme activity (Lymphs; J4 12/2/91 AL): 1.81
enzyme activity (Lymphs; J4 12/3/91 acute leuk.): 1.64
enzyme activity (Lymphs; J5 11/27/91 AML): 5.71
enzyme activity (Lymphs; J19 11/27/91 CLL): 0.98
enzyme activity (Lymphs; J22 12/2/91 AML): 0.74
enzyme activity (Lymphs; J22 12/9/91 AML): 1.20
enzyme activity (Lymphs; N99° normal): 0.33
enzyme activity (Lymphs; N191 normal): 1.18
enzyme activity (Lymphs; N192 normal): 0.56
enzyme activity (Lymphs; N193 normal): 0.52
enzyme activity (Lymphs; N194 normal): 0.93
enzyme activity (Lymphs; N195 normal): 1.07
enzyme activity (Lymphs; N197 normal): 0.70
enzyme activity (Lymphs; N200 normal): 0.90
enzyme activity (Lymphs; N201 normal): 1.05
enzyme activity (Lymphs; N202 normal): 0.71
enzyme activity (Lymphs; N206 normal): 1.65
enzyme activity (Lymphs; P68 tachycardia): 1.51
enzyme activity (Lymphs; P69 pancreatic CA): 1.22
enzyme activity (Lymphs; P70 cirrhosis/hemobilia): 1.02
enzyme activity (Lymphs; P71 ac. pyelonephritis): 0.91
enzyme activity (Grans; J4 11/21/91 acute leuk.): 3.01
enzyme activity (Grans; J4 12/2/91 AL): 4.09
enzyme activity (Grans; J4 12/3/91 acute leuk.): 3.19
enzyme activity (Grans; J5 11/27/91 AML): 14.86
enzyme activity (Grans; J19 11/27/91 CLL): 4.41
enzyme activity (Grans; J22 12/2/91 AML): 1.41
enzyme activity (Grans; J22 12/9/91 AML): 1.90
enzyme activity (Grans; N99° normal): 0.95
enzyme activity (Grans; N191 normal): 1.20
enzyme activity (Grans; N192 normal): 1.20
enzyme activity (Grans; N193 normal): 1.43
enzyme activity (Grans; N194 normal): 1.56
enzyme activity (Grans; N195 normal): 2.53
enzyme activity (Grans; N197 normal): 1.59
enzyme activity (Grans; N200 normal): 1.46
enzyme activity (Grans; N201 normal): 2.06
enzyme activity (Grans; N202 normal): 13.22
enzyme activity (Grans; N206 normal): 3.11
enzyme activity (Grans; P68 tachycardia): 3.09
enzyme activity (Grans; P69 pancreatic CA): 2.14
enzyme activity (Grans; P70 cirrhosis/hemobilia): 2.33
enzyme activity (Grans; P71 ac. pyelonephritis): 4.17

Structure (SMILES): C[C@H](N)C(=O)Nc1ccc2c(c1)Oc1cc(NC(=O)[C@H](C)N)ccc1C21OC(=O)c2ccccc21 [ALA, (Ala)2 Rho 110]
enzyme activity (Lymphs; J4 11/21/91 acute leuk.): 86.00
enzyme activity (Lymphs; J4 12/2/91 AL): 68.10
enzyme activity (Lymphs; J4 12/3/91 acute leuk.): 74.64
enzyme activity (Lymphs; J5 11/27/91 AML): 92.44
enzyme activity (Lymphs; J19 11/27/91 CLL): 47.78
enzyme activity (Lymphs; J22 12/2/91 AML): 84.42
enzyme activity (Lymphs; J22 12/9/91 AML): 83.48
enzyme activity (Lymphs; N99° normal): 91.07
enzyme activity (Lymphs; N191 normal): 95.72
enzyme activity (Lymphs; N192 normal): 103.31
enzyme activity (Lymphs; N193 normal): 100.50
enzyme activity (Lymphs; N194 normal): 97.02
enzyme activity (Lymphs; N195 normal): 118.81
enzyme activity (Lymphs; N197 normal): 96.36
enzyme activity (Lymphs; N200 normal): 101.38
enzyme activity (Lymphs; N201 normal): 106.72
enzyme activity (Lymphs; N202 normal): 118.37
enzyme activity (Lymphs; N206 normal): 122.71
enzyme activity (Lymphs; P68 tachycardia): 1471.10
enzyme activity (Lymphs; P69 pancreatic CA): 130.34
enzyme activity (Lymphs; P70 cirrhosis/hemobilia): 141.87
enzyme activity (Lymphs; P71 ac. pyelonephritis): 109.26
enzyme activity (Grans; J4 11/21/91 acute leuk.): 193.43
enzyme activity (Grans; J4 12/2/91 AL): 139.53
enzyme activity (Grans; J4 12/3/91 acute leuk.): 138.89
enzyme activity (Grans; J5 11/27/91 AML): 194.85
enzyme activity (Grans; J19 11/27/91 CLL): 143.11
enzyme activity (Grans; J22 12/2/91 AML): 157.12
enzyme activity (Grans; J22 12/9/91 AML): 157.48
enzyme activity (Grans; N99° normal): 157.30
enzyme activity (Grans; N191 normal): 177.32
enzyme activity (Grans; N192 normal): 154.84
enzyme activity (Grans; N193 normal): 178.64
enzyme activity (Grans; N194 normal): 164.00
enzyme activity (Grans; N195 normal): 221.28
enzyme activity (Grans; N197 normal): 188.20
enzyme activity (Grans; N200 normal): 171.06
enzyme activity (Grans; N201 normal): 206.06
enzyme activity (Grans; N202 normal): 201.17
enzyme activity (Grans; N206 normal): 232.57
enzyme activity (Grans; P68 tachycardia): 276.07
enzyme activity (Grans; P69 pancreatic CA): 204.02
enzyme activity (Grans; P70 cirrhosis/hemobilia): 236.23
enzyme activity (Grans; P71 ac. pyelonephritis): 185.37

Continued, in another order:

effect of DTE on sensitivity (enzyme): decreases the sensitivity
Structure (SMILES): C[C@H](N)C(=O)N[C@@H](C)C(=O)Nc1ccc2c(c1)Oc1cc(NC(=O)[C@H](C)NC(=O)[C@H](C)N)ccc1C21OC(=O)c2ccccc21 [ALA-ALA*]

effect of DTE on sensitivity (enzyme): decreases the sensitivity
Structure (SMILES): O=C1OC2(c3ccc(NC(=O)[C@@H]4CCCN4)cc3Oc3cc(NC(=O)[C@@H]4CCCN4)ccc32)c2ccccc21 [PRO, (H--L--Pro)2 Rho 110-2TFA]
enzyme activity (Lymphs; J4 11/21/91 acute leuk.): 0.47
enzyme activity (Lymphs; J4 12/2/91 AL): 0.29
enzyme activity (Lymphs; J4 12/3/91 acute leuk.): 0.24
enzyme activity (Lymphs; J5 11/27/91 AML): 0.89
enzyme activity (Lymphs; J19 11/27/91 CLL): 0.44
enzyme activity (Lymphs; J22 12/2/91 AML): 0.40
enzyme activity (Lymphs; J22 12/9/91 AML): 0.44
enzyme activity (Lymphs; N99° normal): 1.02
enzyme activity (Lymphs; N191 normal): 0.69
enzyme activity (Lymphs; N192 normal): 1.14
enzyme activity (Lymphs; N193 normal): 0.95
enzyme activity (Lymphs; N194 normal): 0.86
enzyme activity (Lymphs; N195 normal): 0.88
enzyme activity (Lymphs; N197 normal): 0.57
enzyme activity (Lymphs; N200 normal): 0.74
enzyme activity (Lymphs; N201 normal): 1.10
enzyme activity (Lymphs; N202 normal): 0.89
enzyme activity (Lymphs; N206 normal): 1.28
enzyme activity (Lymphs; P68 tachycardia): 0.70
enzyme activity (Lymphs; P69 pancreatic CA): 0.66
enzyme activity (Lymphs; P70 cirrhosis/hemobilia): 0.56
enzyme activity (Lymphs; P71 ac. pyelonephritis): 0.52
enzyme activity (Grans; J4 11/21/91 acute leuk.): 5.77
enzyme activity (Grans; J4 12/2/91 AL): 3.59
enzyme activity (Grans; J4 12/3/91 acute leuk.): 3.68
enzyme activity (Grans; J5 11/27/91 AML): 5.92
enzyme activity (Grans; J19 11/27/91 CLL): 5.50
enzyme activity (Grans; J22 12/2/91 AML): 4.03
enzyme activity (Grans; J22 12/9/91 AML): 3.53
enzyme activity (Grans; N99° normal): 4.85
enzyme activity (Grans; N191 normal): 4.34
enzyme activity (Grans; N192 normal): 4.34
enzyme activity (Grans; N193 normal): 4.75
enzyme activity (Grans; N194 normal): 3.75
enzyme activity (Grans; N195 normal): 4.70
enzyme activity (Grans; N197 normal): 3.76
enzyme activity (Grans; N200 normal): 4.04
enzyme activity (Grans; N201 normal): 6.42
enzyme activity (Grans; N202 normal): 4.96
enzyme activity (Grans; N206 normal): 6.13
enzyme activity (Grans; P68 tachycardia): 7.19
enzyme activity (Grans; P69 pancreatic CA): 5.70
enzyme activity (Grans; P70 cirrhosis/hemobilia): 0.66
enzyme activity (Grans; P71 ac. pyelonephritis): 6.33

effect of DTE on sensitivity (enzyme): decreases the sensitivity
Structure (SMILES): NCC(=O)Nc1ccc2c(c1)Oc1cc(NC(=O)CN)ccc1C21OC(=O)c2ccccc21 [GLY, (Gly)2 Rho 110]
enzyme activity (Lymphs; J4 11/21/91 acute leuk.): 14.02
enzyme activity (Lymphs; J4 12/2/91 AL): 27.32
enzyme activity (Lymphs; J4 12/3/91 acute leuk.): 31.51
enzyme activity (Lymphs; J5 11/27/91 AML): 28.36
enzyme activity (Lymphs; J19 11/27/91 CLL): 11.39
enzyme activity (Lymphs; J22 12/2/91 AML): 24.50
enzyme activity (Lymphs; J22 12/9/91 AML): 27.14
enzyme activity (Lymphs; N99° normal): 30.68
enzyme activity (Lymphs; N191 normal): 43.57
enzyme activity (Lymphs; N192 normal): 37.47
enzyme activity (Lymphs; N193 normal): 39.30
enzyme activity (Lymphs; N194 normal): 39.76
enzyme activity (Lymphs; N195 normal): 48.18
enzyme activity (Lymphs; N197 normal): 42.96
enzyme activity (Lymphs; N200 normal): 42.28
enzyme activity (Lymphs; N201 normal): 45.32
enzyme activity (Lymphs; N202 normal): 44.55
enzyme activity (Lymphs; N206 normal): 55.56
enzyme activity (Lymphs; P68 tachycardia): 59.29
enzyme activity (Lymphs; P69 pancreatic CA): 67.38
enzyme activity (Lymphs; P70 cirrhosis/hemobilia): 54.84
enzyme activity (Lymphs; P71 ac. pyelonephritis): 41.93
enzyme activity (Grans; J4 11/21/91 acute leuk.): 27.79
enzyme activity (Grans; J4 12/2/91 AL): 47.74
enzyme activity (Grans; J4 12/3/91 acute leuk.): 48.53
enzyme activity (Grans; J5 11/27/91 AML): 56.33
enzyme activity (Grans; J19 11/27/91 CLL): 48.80
enzyme activity (Grans; J22 12/2/91 AML): 34.02
enzyme activity (Grans; J22 12/9/91 AML): 38.47
enzyme activity (Grans; N99° normal): 45.00
enzyme activity (Grans; N191 normal): 73.20
enzyme activity (Grans; N192 normal): 43.67
enzyme activity (Grans; N193 normal): 63.33
enzyme activity (Grans; N194 normal): 60.30
enzyme activity (Grans; N195 normal): 79.13
enzyme activity (Grans; N197 normal): 76.88
enzyme activity (Grans; N200 normal): 59.39
enzyme activity (Grans; N201 normal): 75.48
enzyme activity (Grans; N202 normal): 66.22
enzyme activity (Grans; N206 normal): 91.93
enzyme activity (Grans; P68 tachycardia): 100.00
enzyme activity (Grans; P69 pancreatic CA): 88.04
enzyme activity (Grans; P70 cirrhosis/hemobilia): 88.42
enzyme activity (Grans; P71 ac. pyelonephritis): 59.35
